Details: for surface tension liquid-gas: Maximal bubble pressure; for mass density: 101.33 kPa, Liquid

CCn1cc[n+](C)c1.N#C[B-](C#N)(C#N)C#N [1-ethyl-3-methylimidazolium tetracyanoborate]
Details	mass density [kg/m3]	surface tension liquid-gas [mN/m]
283.15 K	1048.37	49.4
288.15 K	1044.37	48.9
293.15 K	1040.38	48.2
298.15 K	1036.41	47.8
303.15 K	1032.46	47.6
308.15 K	1028.55	47.1
313.15 K	1024.66	46.8
318.15 K	1020.78	46.4
323.15 K	1016.95	46.2
328.15 K	1013.11	45.5
333.15 K	1009.32	45
338.15 K	1005.54	44.8
